# In PubChem BioAssay (NCI):
#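 Following 48 hours of exposure in 96-well plates, responses at five concentrations were used to interpolate endpoints linearly. GI50 is the concentration that inhibits growth by half. Definition used: TGI = concentration required for complete inhibition of growth.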
# Experiments:
# Assay in all cases: NCI tumour cell line growth inhibition, 48 h
# ACHN renal = test system: ACHN renal
# HS 578T breast = test system: HS 578T breast
# MALME-3M melanoma = test system: MALME-3M melanoma
# MDA-MB-231 breast = test system: MDA-MB-231 breast
# PC-3 prostate = test system: PC-3 prostate
# RPMI-8226 leukemia = test system: RPMI-8226 leukemia
# SF-295 CNS = test system: SF-295 CNS
# SF-539 CNS = test system: SF-539 CNS
# SK-MEL-5 melanoma = test system: SK-MEL-5 melanoma
# SNB-19 CNS = test system: SNB-19 CNS
Structure (SMILES),GI50 (ACHN renal) [µM],TGI (ACHN renal) [µM],GI50 (HS 578T breast) [µM],TGI (HS 578T breast) [µM],GI50 (MALME-3M melanoma) [µM],TGI (MALME-3M melanoma) [µM],GI50 (MDA-MB-231 breast) [µM],TGI (MDA-MB-231 breast) [µM],GI50 (PC-3 prostate) [µM],TGI (PC-3 prostate) [µM],GI50 (RPMI-8226 leukemia) [µM],TGI (RPMI-8226 leukemia) [µM],GI50 (SF-295 CNS) [µM],TGI (SF-295 CNS) [µM],GI50 (SF-539 CNS) [µM],TGI (SF-539 CNS) [µM],GI50 (SK-MEL-5 melanoma) [µM],TGI (SK-MEL-5 melanoma) [µM],GI50 (SNB-19 CNS) [µM],TGI (SNB-19 CNS) [µM]
O=C(c1ccc2ccccc2c1)c1nc2cc(F)ccc2[n+]([O-])c1C(F)(F)F,22.5,60,21.9,56.9,17.3,32.9,18.8,38,20.1,53.4,20.1,53.7,18.3,37.9,22,48.9,24.9,67.6,19.4,37.8
CC(NC(=O)Cc1ccc(C(F)(F)P(=O)(OCc2ccc([N+](=O)[O-])o2)N(C)CCCCCl)cc1)c1ccc(OCC2CCCCC2)c(C(N)=O)c1 (stereo not drawn),8.77,39.3,8.21,38.4,4.62,16.3,15.7,35.3,6.91,> 34.8,1.14,3.86,4.52,12.3,6.33,13.4,6.77,15.5,8.97,29.7
CCCN(CCC)c1ccc(C=O)c(Cl)c1,31.7,> 100,22.9,> 96.8,23.4,> 69,18.9,43.7,29.1,> 100,40.1,> 100,3.87,29.2,23.8,> 65,14.8,28.6,25.8,> 100
CCOC(=O)c1ccc(NC(=O)NC2=NCCS2)cc1,45.9,> 100,1.97,> 100,0.465,> 100,1.64,> 100,0.451,> 100,1.93,> 100,0.619,6.13,0.381,2.27,2.7,> 100,2.86,> 100
COc1cccc(CNc2ncnc3c2ncn3C2OC(CO)C(O)C2O)c1O (stereo not drawn),0.128,–,0.108,0.577,0.259,4.38,0.0302,0.111,0.179,> 100,0.319,> 100,0.165,0.66,0.144,1.85,1.43,> 100,0.48,> 100
Nc1nc(N)c2cc(Sc3ccc4ccccc4c3)ccc2n1,–,5.15,–,9.17,1.29,2.86,–,5.28,–,6.12,–,4.72,–,4.91,–,5.04,–,2.24,–,7.61
COc1ccc2c(c1)CN([C@@H](C)[C@H]1CC[C@H]3[C@@H]4CC[C@H]5C[C@@H](O)CC[C@]5(C)[C@H]4CC[C@]13C)CO2,–,11.2,–,4.14,–,3.47,–,5.19,–,7.46,–,1.97,–,2.98,–,3.33,–,3.28,–,4.1
O=C(Nc1cccc2[nH]c(C(F)(F)F)nc12)c1cc(Cl)ccc1Cl,2.88,16.6,2.91,12.9,2.85,8.61,2.43,6.71,3.1,92.9,2.3,6.3,2.23,6.55,3.07,15.3,1.77,3.45,3.72,> 100
N=c1ccc2nc3ccc(N)cc3sc-2c1,8.55,23.2,20.9,> 100,6.22,32.5,3.56,20.3,2.56,15.6,2.87,26,4.28,59.1,3.21,8.62,1.7,3.53,3.17,14.9
COc1ccc(-c2cnnn2-c2nonc2-n2cccc2)cc1OC,7.8,> 100,4.55,75.7,3.86,> 100,5.35,69.4,14.1,> 100,4.85,> 100,3.94,44.6,3.44,22.2,4.6,21.1,13.2,> 100
COc1cc(OCc2cccc(-c3ccccc3)c2C)cc(OC)c1CN1CCCCC1C(=O)NCCOCCOCCN (stereo not drawn),3.43,13,1.93,4.56,1.55,3.05,1.8,3.84,2.76,11.6,2.04,5,2.03,4.23,1.74,3.25,1.76,3.21,2.95,10.6
C=C1C(=O)O[C@H]2[C@H]1CC/C(Cn1cc(-c3ccc(N)cc3)nn1)=C\CC[C@@]1(C)O[C@@H]21,2.65,12,4.46,27.4,2.18,5.42,3.45,15.8,10.1,24.6,2.75,10.4,12.1,26.5,2.77,8.75,3.47,12.7,12.7,41.1
CCN1[C@@H](C(=O)NC23CCC(C(=O)O)(CC2)CC3)[C@H](c2cccc(Cl)c2F)[C@]2(C(=O)Nc3cc(Cl)ccc32)C12CCCCC2,0.0878,3.77,2.05,10.1,0.0655,1.18,5.85,27.4,2.42,9.21,2.33,6.61,2.21,7.29,2.78,10.6,1.39,2.75,3.56,15.2
CCCCCCCCCc1ccc(OCCOCCOCCOCCOCCOCCOCCOCCOCCO)cc1,1.19,5.7,1.17,9.03,0.646,1.63,0.668,1.51,0.0898,1.18,0.0368,1.76,0.304,1.96,0.949,2.67,0.136,0.643,0.617,2.73
Cc1cc(CCl)c(C)cc1CCl,0.695,3.08,2.4,8.21,1.96,5.46,4.08,18.6,2.25,10.1,1.63,6.9,0.84,4.61,1.02,4.26,4.19,17.2,3.75,17.6
COc1cc(F)ccc1-c1cc(Nc2cc(CS(C)(=N)=O)ccn2)ncc1F (stereo not drawn),0.0371,> 100,0.0919,–,0.2,–,0.0974,> 100,0.0451,> 47.2,0.11,0.662,0.0662,> 100,0.0366,0.272,0.0385,14.3,0.0644,> 100
